Article PMC4444023 (PLoS ONE, 2015)
Where “and” joins values, the source holds several entries; their conditions need not be identical. Equal entries are not always repeated. Entries after “also recorded” stand apart in the source; their conditions may differ.

Key:
Solubility = assay type: physicochemical; conditions: cambinol compared to GW4869
macrophages = conditions: cited from earlier work
human nSMase2 [1] = target: T1, human nSMase2 (Homo sapiens, UniProt Q9NY59); experiment: Fluorescence (Amplex red coupled) nSMase2 activity assay; assay type: biochemical; design: Full length human nSMase2 cDNA with a C-terminal Flag tag; crude cell lysate used as enzyme
T1 sequence (Q9NY59 1-655): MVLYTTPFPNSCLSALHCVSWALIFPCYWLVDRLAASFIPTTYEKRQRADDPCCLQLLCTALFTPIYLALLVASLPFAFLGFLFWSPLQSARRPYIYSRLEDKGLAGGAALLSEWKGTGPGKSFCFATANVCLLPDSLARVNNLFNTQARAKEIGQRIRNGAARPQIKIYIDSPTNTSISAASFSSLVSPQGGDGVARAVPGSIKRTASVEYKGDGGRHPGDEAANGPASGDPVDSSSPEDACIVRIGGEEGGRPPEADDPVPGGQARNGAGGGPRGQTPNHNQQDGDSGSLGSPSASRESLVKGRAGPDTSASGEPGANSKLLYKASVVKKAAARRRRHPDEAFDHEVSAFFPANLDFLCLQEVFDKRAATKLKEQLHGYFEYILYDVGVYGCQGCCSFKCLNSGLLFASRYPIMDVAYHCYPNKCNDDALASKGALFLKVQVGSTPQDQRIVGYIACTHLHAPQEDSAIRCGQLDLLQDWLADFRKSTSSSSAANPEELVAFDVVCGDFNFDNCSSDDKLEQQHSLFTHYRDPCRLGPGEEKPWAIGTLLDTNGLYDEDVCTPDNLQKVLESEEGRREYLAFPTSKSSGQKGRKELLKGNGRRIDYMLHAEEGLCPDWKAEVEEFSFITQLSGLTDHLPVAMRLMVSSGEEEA
Description: The production of the latter was coupled to a dephosphorylation reaction catalyzed by alkaline phosphatase (4 U/ml) to produce choline, followed by oxidation of choline by choline oxidase (0.1 U/ml) to produce betaine and H2O2, which in the presence of horseradish peroxidase (HRP, 1U/ml) and 50 μM Amplex red, generates the fluorescent molecule resorufin (Life Technologies). Substrate stock solution was prepared in 2% Triton X-100, vortexed and sonicated for 30 min. Reactions were carried out for 1 h at 37°C in 100 mM Tris-HCl pH 7.4, 10 mM MgCl2, 0.2% Triton X-100 and the generation of the fluorescent product was monitored by measuring relative florescence units (RFU) with excitation at 530 nm and emission at 590 nm (Fig 1). This assay was optimized for 384-well format (50 μl total volume per well) based on linearity of the enzymatic activity with respect to time, as well as substrate and enzyme concentrations. […] This fluorescence assay was used for compound screening and IC50 value determinations, based on duplicate eight-point dose response curves.

human nSMase2 [2] = target: T1, human nSMase2; experiment: 14C-SM confirmatory direct activity assay; assay type: biochemical; design: Full length human nSMase2 cDNA with a C-terminal Flag tag; host or cells: HEK293, stably transfected; crude cell lysate used as enzyme
Description: This assay was dependent on the direct hydrolysis of ^14C-labeled SM (^14C N-methyl groups in the phosphorylcholine) by human nSMase2. Optimization of assay conditions was accomplished according to the methods of Barbone et al.. Briefly, bovine [N-methyl-^14C]-sphingomyelin (specific activity […], Perkin Elmer) and phosphatidylinositol (Avanti Polar Lipids) were evaporated to dryness under a stream of nitrogen and resuspended at an equimolar concentration of 0.1 mM in water with 0.5% Triton X-100 (Sigma). The solution was vortexed for 30 min and then sonicated for 30 min. Assay conditions were as follows: 50 μl total volume per reaction, consisting of 20 μM SM, reaction buffer (100 mM Tris-HCl pH 7.5, 80 mM MgCl2, 0.1% Triton X-100); 10 μl cell lysate containing recombinant human nSMase2 (0.5–1 μg protein/assay) and 5 μl of compound in reaction buffer containing 10% DMSO. After 1 h incubation at 37°C the reaction was terminated by the addition of 30 μl of water and 175 μl of chloroform/methanol (2:1, v:v), followed by vigorous vortexing. Tubes were centrifuged for 5 min at 10,000 xg at room temperature to separate the organic bottom phase containing labeled SM and the aqueous upper phase containing ^14C-labeled-phosphorylcholine. An aliquot (50 μl) of the upper phase was transferred to a vial with 10 ml of scintillant and counted for 2 min on a Beckman LS-6000IC scintillation counter. Enzyme activity was directly proportional to the disintegrations per min (dpm) resulting from the generation of ^14C-phosphorylcholine.

## O=c1[nH]c(=S)[nH]c(-c2ccccc2)c1Cc1c(O)ccc2ccccc12 [Cambinol, cambinol]
Solubility
  aqueous solubility: significantly higher; also recorded: improved
macrophages
  TNF-α and IL-6 release: effectively inhibited
Human nSMase2 [1]; 1/[SM] 0.002 µM^-1, 2 µM Cambinol
  1/V: 0.00052 h/RFU
Human nSMase2 [1]; 1/[SM] 0.002 µM^-1, 3 µM Cambinol
  1/V: 0.00066 h/RFU
Human nSMase2 [1]; 1/[SM] 0.002 µM^-1, 5 µM Cambinol
  1/V: 0.00102 h/RFU
Human nSMase2 [1]; 1/[SM] 0.003 µM^-1, 2 µM Cambinol
  1/V: 0.00062 h/RFU
Human nSMase2 [1]; 1/[SM] 0.003 µM^-1, 3 µM Cambinol
  1/V: 0.00078 h/RFU
Human nSMase2 [1]; 1/[SM] 0.003 µM^-1, 5 µM Cambinol
  1/V: 0.00109 h/RFU
Human nSMase2 [1]; 1/[SM] 0.006 µM^-1, 2 µM Cambinol
  1/V: 0.00075 h/RFU
Human nSMase2 [1]; 1/[SM] 0.006 µM^-1, 3 µM Cambinol
  1/V: 0.00095 h/RFU
Human nSMase2 [1]; 1/[SM] 0.006 µM^-1, 5 µM Cambinol
  1/V: 0.00128 h/RFU
Human nSMase2 [1]; 1/[SM] 0.013 µM^-1, 2 µM Cambinol
  1/V: 0.00096 h/RFU
Human nSMase2 [1]; 1/[SM] 0.013 µM^-1, 3 µM Cambinol
  1/V: 0.00118 h/RFU
Human nSMase2 [1]; 1/[SM] 0.013 µM^-1, 5 µM Cambinol
  1/V: 0.00146 h/RFU
Human nSMase2 [1]; [SM] 19.5 µM, 2 µM Cambinol
  V: 641 RFU/h
Human nSMase2 [1]; [SM] 19.5 µM, 3 µM Cambinol
  V: 571 RFU/h
Human nSMase2 [1]; [SM] 19.5 µM, 5 µM Cambinol
  V: 500 RFU/h
Human nSMase2 [1]; [SM] 39.0 µM, 2 µM Cambinol
  V: 752 RFU/h
Human nSMase2 [1]; [SM] 39.0 µM, 3 µM Cambinol
  V: 663 RFU/h
Human nSMase2 [1]; [SM] 39.0 µM, 5 µM Cambinol
  V: 567 RFU/h
Human nSMase2 [1]; [SM] 78.0 µM, 2 µM Cambinol
  V: 1042 RFU/h
Human nSMase2 [1]; [SM] 78.0 µM, 3 µM Cambinol
  V: 849 RFU/h
Human nSMase2 [1]; [SM] 78.0 µM, 5 µM Cambinol
  V: 684 RFU/h
Human nSMase2 [1]; [SM] 156.0 µM, 2 µM Cambinol
  V: 1336 RFU/h
Human nSMase2 [1]; [SM] 156.0 µM, 3 µM Cambinol
  V: 1055 RFU/h
Human nSMase2 [1]; [SM] 156.0 µM, 5 µM Cambinol
  V: 784 RFU/h
Human nSMase2 [1]; [SM] 313.0 µM, 2 µM Cambinol
  V: 1621 RFU/h
Human nSMase2 [1]; [SM] 313.0 µM, 3 µM Cambinol
  V: 1288 RFU/h
Human nSMase2 [1]; [SM] 313.0 µM, 5 µM Cambinol
  V: 922 RFU/h
Human nSMase2 [1]; human nSMase2
  mode of inhibition (MOI): uncompetitive
Human nSMase2 [2]; Log [compound] -3.0
  %Inhibition: 92.0% and 91.0%
Human nSMase2 [2]; Log [compound] -3.47756
  %Inhibition: 99.0% and 86.0%
Human nSMase2 [2]; Log [compound] -4.0
  %Inhibition: 83.0% and 80.0%
Human nSMase2 [2]; Log [compound] -5.0
  %Inhibition: 56.0% and 57.0%
Human nSMase2 [2]; Log [compound] -5.47756
  %Inhibition: 46.0% and 47.0%
Human nSMase2 [2]; Log [compound] -6.0
  %Inhibition: 13.0% and 15.0%
Human nSMase2 [2]; Log [compound] -7.0
  %Inhibition: 0.0% and 10.0%
Human nSMase2 [2]; Log [compound] -7.47756
  %Inhibition: 8.0% and 10.0%
Human nSMase2 [2]; Log [compound] -8.0
  %Inhibition: 8.0% and 11.0%
Human nSMase2 [2]; Log [compound] -8.47756
  %Inhibition: 14.0% and 7.0%
Human nSMase2 [2]; Log [compound] -9.0
  %Inhibition: 6.0% and 4.0%
Human nSMase2 [2]; Log [compound] -9.47756
  %Inhibition: 12.0% and 18.0* %
Human nSMase2 [2]; at 10 μM
  inhibition at 10 µM: > 80%
